Measurements published in publication PMC137588 (BMC Neuroscience, 2002).
Like-named read-outs stand apart in the source and are kept apart here.

Key:
[1] = target: T1, mouse δ opioid receptor (Mus musculus, UniProt P32300); experiment: cell-based; type: cell-based; settings: for Emax: HEK293, read-out: Max Inhibition %
[2] = target: T1, mouse δ opioid receptor
[3] = test system: μ opioid receptors; settings: ref Gharagozlou et al. unpublished results; cited from earlier work
[4] = test system: μ opioid receptors; settings: ref Gharagozlou et al. unpublished results; cited from earlier work; remark: listed apart in the source
[5] = target: T1, mouse δ opioid receptor; type: binding; settings: read-out: AFFINITY Ki

T1 sequence (P32300 whole entry): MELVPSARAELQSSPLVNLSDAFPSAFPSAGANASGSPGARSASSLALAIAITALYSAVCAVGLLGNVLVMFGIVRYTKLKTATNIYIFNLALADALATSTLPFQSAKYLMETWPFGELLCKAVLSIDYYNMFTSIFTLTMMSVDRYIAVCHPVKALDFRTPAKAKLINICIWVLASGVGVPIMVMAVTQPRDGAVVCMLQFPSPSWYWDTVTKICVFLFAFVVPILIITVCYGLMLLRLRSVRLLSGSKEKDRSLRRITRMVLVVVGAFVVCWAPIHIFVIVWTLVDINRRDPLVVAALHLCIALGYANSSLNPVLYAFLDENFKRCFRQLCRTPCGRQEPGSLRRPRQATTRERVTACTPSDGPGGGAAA

Oc1ccc2c(c1)[C@@]13CCCC[C@@]1(O)[C@@H](C2)N(CC1CCC1)CC3 [Butorphanol]
Emax [1]: 64 ± 4%
IC50 ([1]; IC50 ± SEM): 61 ± 12 nM

C[C@H]1[C@H]2Cc3ccc(O)cc3[C@]1(C)CCN2CC1CC1 [Cyclazocine]
Emax [1]: 53 ± 2%
IC50 ([1]; IC50 ± SEM): 6 ± 3 nM

C[C@@]12CCCCC[C@@H](Cc3ccc(O)cc31)[C@@H]2N [Dezocine]
Emax [1]: 39%
IC50 ([1]; IC50 ± SEM): 477 ± 152 nM

C[C@H]1[C@H]2Cc3ccc(O)cc3[C@]1(C)CCN2C [Metazocine]
Agonist efficacy classification at δ opioid receptors [1]: super agonists
Emax [1]: 77 ± 4%
IC50 ([1]; IC50 ± SEM): 159 ± 70 nM

C=CCN1CC[C@]23c4c5ccc(O)c4O[C@H]2[C@@H](O)C=C[C@H]3[C@H]1C5 [Nalorphine]
Classification as antagonist at δ opioid receptor [2]: Antagonist

C=CCN1CCC2(C)c3cc(O)ccc3CC1C2C (centres unmarked) [SKF 10047]
Emax [1]: 68 ± 9%
IC50 ([1]; IC50 ± SEM): 184 ± 121 nM

CN1CC[C@]2(C)c3cc(O)ccc3C[C@H]1C2(C)CCC(=O)CCC1CCCC1 (some centres unmarked) [WIN 44,441]
affinity at μ opioid receptors [3]: less than 1 nM
activation profile at μ opioid receptors [4]: antagonist
Ki [5]: 2.6 ± 0.9 nM
Max Inhibition % [1]: 54 ± 6 %
IC50 ([1]; read-out: IC50 ± SEM): 40 ± 25 nM

C=C1C[C@H](C)[C@H]2[C@H]3Cc4ccc(O)cc4[C@@]2(CCN3CC2CCC2)C1 [Xorphanol]
affinity at μ opioid receptors [3]: less than 1 nM
activation profile at μ opioid receptors [4]: very weak agonist
Ki [5]: 1 ± 0.2 nM
Agonist efficacy classification at δ opioid receptors [1]: super agonists
Max Inhibition % [1]: 76 ± 4^$$ ## %
IC50 ([1]; read-out: IC50 ± SEM): 8 ± 2 nM
